This note sets out measurements from ChEMBL document CHEMBL1773026, “Inhalation by design: dual pharmacology β-2 agonists/M3 antagonists for the treatment of COPD” (Bioorg Med Chem Lett, 2011).

The target of series [1] is T1, Muscarinic acetylcholine receptor M3 (Homo sapiens, UniProt P20309). The series can be described thus: Displacement of [3H]NMS from human muscarinic M3 receptor expressed in CHO cells assessed as time required to reach 50% of total [3H]NMS binding by dilution-offset methodology. It counts as cell-based. (Loss of bound radioactivity is the signal in a displacement assay; it reports binding, not function.)
Target sequence in this assay (P20309 whole entry, looked up): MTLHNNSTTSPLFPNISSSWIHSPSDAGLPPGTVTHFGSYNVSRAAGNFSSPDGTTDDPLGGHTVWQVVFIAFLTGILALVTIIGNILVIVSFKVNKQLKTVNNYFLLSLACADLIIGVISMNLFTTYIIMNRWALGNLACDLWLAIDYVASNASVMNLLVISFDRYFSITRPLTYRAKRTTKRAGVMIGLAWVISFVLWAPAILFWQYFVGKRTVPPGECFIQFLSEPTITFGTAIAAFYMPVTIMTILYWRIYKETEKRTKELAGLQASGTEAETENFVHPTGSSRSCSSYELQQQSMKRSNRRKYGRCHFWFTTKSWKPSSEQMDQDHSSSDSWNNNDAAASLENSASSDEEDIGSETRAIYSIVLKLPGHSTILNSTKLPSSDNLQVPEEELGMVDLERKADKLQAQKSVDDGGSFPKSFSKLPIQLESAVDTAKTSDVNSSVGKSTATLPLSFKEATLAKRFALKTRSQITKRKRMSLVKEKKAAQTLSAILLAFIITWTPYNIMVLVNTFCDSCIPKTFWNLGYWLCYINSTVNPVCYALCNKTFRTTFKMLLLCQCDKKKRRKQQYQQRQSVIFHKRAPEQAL

Series [2] in a line: Clearance in human liver microsomes. It counts as ADME, Microsome. For orientation: Microsomes from liver hold many membrane-bound enzymes, among them those of drug oxidation.
In series [3] the target is T2, Beta-2 adrenergic receptor (Homo sapiens, UniProt P07550). The series can be described thus: Ratio of EC50 for human beta2 adrenergic receptor by unwashed assay to EC50 for human beta2 adrenergic receptor expressed in CHO cells by wash-off assay. It counts as cell-based.
Target sequence in this assay (P07550 whole entry, looked up): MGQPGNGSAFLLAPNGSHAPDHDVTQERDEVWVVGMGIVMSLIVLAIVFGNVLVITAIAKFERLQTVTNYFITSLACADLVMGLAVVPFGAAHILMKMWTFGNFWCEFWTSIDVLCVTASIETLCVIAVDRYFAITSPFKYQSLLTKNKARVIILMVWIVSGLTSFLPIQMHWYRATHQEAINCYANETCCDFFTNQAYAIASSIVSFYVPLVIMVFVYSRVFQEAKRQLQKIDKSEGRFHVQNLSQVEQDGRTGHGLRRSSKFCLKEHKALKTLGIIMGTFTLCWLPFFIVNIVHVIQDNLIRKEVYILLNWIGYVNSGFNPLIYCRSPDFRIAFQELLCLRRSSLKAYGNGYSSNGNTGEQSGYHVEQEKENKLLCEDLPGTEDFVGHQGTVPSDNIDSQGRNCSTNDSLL
In series [4] the target is T2, Beta-2 adrenergic receptor. The experiment in a line: Agonist activity at human beta2 adrenergic receptor expressed in CHO cells assessed as stimulation of intracellular cAMP production after 30 mins of washing by wash-off assay. It counts as functional, cell-based. On the technique in general: cAMP levels reflect the balance of adenylyl cyclase and phosphodiesterase activity.
Target sequence in this assay (P07550 whole entry): as the sequence (P07550 whole entry, looked up) above

Series [5] deals with T1, Muscarinic acetylcholine receptor M3. The series can be described thus: Displacement of [3H]N-methyl Scopolamine from human muscarinic M3 receptor expressed in CHO cells by scintillation proximity assay. It counts as cell-based.
Target sequence in this assay (P20309 whole entry): as the sequence (P20309 whole entry, looked up) above
Series [6] deals with Muscarinic acetylcholine receptor M3 (Cavia porcellus) (UniProt Q8VH26). The experiment in a line: […] activity at muscarinic M3 receptor in guinea pig trachea assessed as time taken for inducing bronchorelaxation activity in presence of propranolol. It counts as functional, tissue-based.
Chain of Muscarinic acetylcholine receptor M3 (Cavia porcellus) (Q8VH26 1-587): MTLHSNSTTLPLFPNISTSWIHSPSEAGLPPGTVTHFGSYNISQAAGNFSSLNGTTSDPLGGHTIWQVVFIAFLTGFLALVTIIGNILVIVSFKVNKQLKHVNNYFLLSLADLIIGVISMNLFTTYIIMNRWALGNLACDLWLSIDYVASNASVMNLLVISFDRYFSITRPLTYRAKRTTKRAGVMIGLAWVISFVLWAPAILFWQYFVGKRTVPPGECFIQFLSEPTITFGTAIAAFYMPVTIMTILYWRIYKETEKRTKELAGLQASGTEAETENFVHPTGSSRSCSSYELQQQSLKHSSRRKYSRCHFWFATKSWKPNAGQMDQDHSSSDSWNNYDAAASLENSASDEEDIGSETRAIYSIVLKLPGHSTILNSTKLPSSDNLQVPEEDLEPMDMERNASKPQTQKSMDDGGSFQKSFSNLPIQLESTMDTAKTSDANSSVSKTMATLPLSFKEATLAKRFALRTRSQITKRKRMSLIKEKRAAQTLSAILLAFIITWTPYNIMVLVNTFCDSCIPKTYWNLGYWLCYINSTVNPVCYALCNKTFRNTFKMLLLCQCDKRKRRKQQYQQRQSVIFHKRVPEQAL
Series [7] can be described thus: Bronchodilatory activity against electrically-stimulated contraction in guinea pig trachea assessed as time taken for inducing 50% maximum relaxant effect. It counts as functional, Cavia porcellus.
Series [8] addresses Muscarinic acetylcholine receptor M3 (Cavia porcellus, UniProt Q8VH26). The series can be described thus: […] activity at muscarinic M3 receptor in guinea pig trachea assessed as bronchorelaxation activity in presence of propranolol. It counts as functional, tissue-based.
A short description of series [9]: Bronchodilatory activity against electrically-stimulated contraction in guinea pig trachea assessed as concentration required for 50% bronchorelaxation activity. It counts as functional, tissue-based, Cavia porcellus.
The target of series [10] is Beta-2 adrenergic receptor (Cavia porcellus, UniProt Q8K4Z4). The series can be described thus: Agonist activity at adrenergic beta2 receptor in guinea pig trachea assessed as bronchorelaxation activity against histamine-induced contraction. It counts as functional.
Chain of Beta-2 adrenergic receptor (Cavia porcellus, UniProt Q8K4Z4) (Q8K4Z4 whole entry): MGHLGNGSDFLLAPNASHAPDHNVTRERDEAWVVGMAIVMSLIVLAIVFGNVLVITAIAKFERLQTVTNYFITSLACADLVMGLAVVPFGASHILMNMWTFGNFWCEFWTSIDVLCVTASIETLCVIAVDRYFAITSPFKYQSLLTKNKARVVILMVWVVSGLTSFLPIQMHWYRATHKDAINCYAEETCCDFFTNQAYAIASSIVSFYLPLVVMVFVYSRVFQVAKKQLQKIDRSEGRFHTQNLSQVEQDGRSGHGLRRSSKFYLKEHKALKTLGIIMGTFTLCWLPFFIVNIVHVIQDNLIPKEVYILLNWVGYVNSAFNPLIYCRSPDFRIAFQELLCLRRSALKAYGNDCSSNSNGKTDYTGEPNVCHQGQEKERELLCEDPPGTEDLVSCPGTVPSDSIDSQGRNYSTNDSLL
The species named for series [11] is Canis familiaris. The series can be described thus: Inhibition of methacholine-induced bronchoconstriction in dog assessed as duration action at 30 ug, it. It counts as functional, Canis lupus familiaris.
A short description of series [12]: Oral bioavailability in human. It counts as ADME, organism-based. The following applies: in vivo.
The species named for series [13] is Canis familiaris. The experiment in a line: Inhibition of methacholine-induced bronchoconstriction in dog. It counts as functional, Canis lupus familiaris.
The nature of series [14]: AUC in rat at 2 mg/kg, iv. It counts as ADME, organism-based. More on the design: dose 2 mg/kg, route intravenous. The following applies: plasma.
Series [15] is described as follows: Clearance in rat at 2 mg/kg, iv. It counts as ADME, organism-based. Also on record: dose 2 mg/kg, route intravenous. The following applies: in vivo.

Some results are limits rather than exact numbers.

Chain of Muscarinic acetylcholine receptor M3 (Cavia porcellus, UniProt Q8VH26) (Q8VH26 whole entry): as the sequence (Q8VH26 1-587) above

With `Cc1ccc(O)c([C@H](CCN(C(C)C)C(C)C)c2ccccc2)c1` [TOLTERODINE], in series [1], the TIME was less than 0.25 h. The molecule also displayed a microsomal CLint in [2] of 163 µL/min/mg.
For `C[C@H](Cc1cccc(CC(=O)NCc2ccc(Cl)c(Cl)c2)c1)NC[C@H](O)c1ccc(O)c(CO)c1`, in series [3], the Ratio EC50 is 2.9. Further, in series [4], the EC50 was determined as 1.1 nM. In series [2], the microsomal CLint was greater than 440 µL/min/mg.
As for `CC(C)N(CC[C@H](c1ccccc1)c1cc(CCCNC(=O)Cc2cccc(CC(C)(C)NC[C@H](O)c3ccc(O)c(CO)c3)c2)ccc1O)C(C)C`, in series [3], the Ratio EC50 was 2.8. Besides, the EC50 in [4] turned out to be 17 nM. Moreover, in series [1], the TIME stood at 5.92 h. Moreover, the microsomal CLint in series [2] amounted to 263 µL/min/mg. In [5], this molecule showed a Ki of 0.091 nM.
As to `CC(C)N(CC[C@H](c1ccccc1)c1cc(CCCNC(=O)Cc2cccc(C[C@@H](C)NC[C@H](O)c3cc(O)cc(O)c3)c2)ccc1O)C(C)C`, the Ratio EC50 in series [3] turned out to be 0.7. Besides, the EC50 in series [4] was 15 nM. The TIME in series [1] amounted to 2.25 h. For the same molecule, the intrinsic metabolic clearance (microsomal CLint) in [2] is greater than 440 µL/min/mg. Affinity in [5] was put at a Ki of 0.397 nM.
With `CC(C)N(CC[C@H](c1ccccc1)c1cc(CCCNC(=O)CCCCCCCCCCNC[C@H](O)c2ccc(O)c(NS(C)(=O)=O)c2)ccc1O)C(C)C`, in series [3], the Ratio EC50 amounted to 7.3. In addition, in series [4], the EC50 stood at 116 nM. Further, the microsomal CLint in series [2] was found to be 87 µL/min/mg. In series [5], this molecule returned a Ki of 1.45 nM.
As to `CC(C)N(CC[C@H](c1ccccc1)c1cc(CCCCOc2ccc(CCNC[C@H](O)c3ccc(O)c(O)c3)cc2)ccc1O)C(C)C`, the EC50 in series [4] was determined as 173 nM. The same molecule returned a Ki in series [5] of 4.7 nM.
Consider `CC(C)N(CC[C@H](c1ccccc1)c1cc(CCCCOc2ccc(CCNC[C@H](O)c3ccc(O)c(CO)c3)cc2)ccc1O)C(C)C`, for which the Ratio EC50 in series [3] is 2.6. Also, the EC50 in series [4] was 129 nM. In [1], the TIME is greater than 20 h. In [2], this molecule displayed a microsomal CLint of 54 µL/min/mg. This molecule also yielded a Ki in series [5] of 0.765 nM.
`CC(C)N(CC[C@H](c1ccccc1)c1cc(CCCNC(=O)Cc2cccc(CC(C)(C)NC[C@H](O)c3ccc(O)c(NS(C)(=O)=O)c3)c2)ccc1O)C(C)C`: the TIME in [6] came out at 4.8 h; in series [1] it was 2.77 h. In [7], the Time is greater than 6.5 h. In addition, the EC50 came out at 5.3 nM in series [8], 1.3 nM in series [9], 8.1 nM in series [4] and 2.1 nM in series [10]. Also, the Ratio EC50 in series [3] worked out at 1.1. Besides, the microsomal CLint in series [2] was 109 µL/min/mg. In addition, in series [5], affinity was put at a Ki of 0.276 nM.
As for `CC(C)N(CC[C@H](c1ccccc1)c1cc(CCCCOCCCCCCNC[C@H](O)c2ccc(O)c(NS(C)(=O)=O)c2)ccc1O)C(C)C`, the Ratio EC50 in series [3] is 0.7. For the same molecule, the EC50 in series [4] was found to be 5.7 nM. In series [1], the TIME is greater than 20 h. Moreover, the microsomal CLint in [2] was determined as 57 µL/min/mg. In [5], this molecule had an inhibitory constant (Ki) of 0.99 nM.
Regarding `CC(C)N(CC[C@H](c1ccccc1)c1cc(CCCCOc2ccc(CCNC[C@H](O)c3ccc(O)c(NS(C)(=O)=O)c3)cc2)ccc1O)C(C)C`, in series [3], the Ratio EC50 was determined as 1.9. Also, in series [4], the EC50 stood at 13 nM. The TIME in series [1] is greater than 20 h. The same molecule yielded an intrinsic metabolic clearance (microsomal CLint) in [2] of 67 µL/min/mg. Besides, in series [5], the Ki is 0.634 nM.
Consider `CC(C)N(CC[C@H](c1ccccc1)c1cc(CCNC[C@H](O)c2ccc(O)c(NS(C)(=O)=O)c2)ccc1O)C(C)C`, for which the Ratio EC50 in series [3] was 19. Moreover, in [4], the concentration giving a half-maximal response (EC50) worked out at 10 nM. Besides, the TIME in series [1] was less than 0.25 h. Also, the Ki in [5] came out at 6.1 nM.
Take `CC(C)N(CC[C@H](c1ccccc1)c1cc(CCCCOc2ccc(CCNC[C@H](O)c3ccc(O)c4[nH]c(=O)ccc34)cc2)ccc1O)C(C)C`: the TIME was greater than 10 h in [6] and greater than 20 h in series [1]. Besides, the Time in series [7] is greater than 7.7 h; in [11] it was greater than 16 h. Besides, the EC50 in series [8] is 4 nM; in series [9] it was 4.1 nM; in series [4] it was 2.4 nM; in series [10], 4 nM. The Ratio EC50 in series [3] is 1.1. The bioavailability in series [12] was less than 5%. This molecule showed an ED50 in [13] of 30 µg. The area under the curve (AUC) in [14] was 2670 ng·h/mL. In series [2], the microsomal CLint turned out to be 74 µL/min/mg. Further, in series [5], the affinity corresponds to a Ki of 0.305 nM. Also, in series [15], the clearance is 12.6 mL/min/kg.

Usually microsomal CLint stands for a measure of how fast metabolising enzymes remove a compound, apart from limits set by blood flow. Lower therefore signals greater metabolic stability. Broadly, the EC50 is the concentration at which the effect is half-maximal. In general, Ki refers to a dissociation constant, usually derived from enzyme kinetics or from competition with a known ligand. Low readings indicate higher affinity, high ones lower affinity. The bioavailability is dose-corrected exposure relative to a reference, in per cent. In general, AUC refers to concentration integrated over time. As usually defined, the clearance is the volume of plasma or blood freed of the substance per unit of time. A lower clearance goes with a low capacity for elimination.
